Experiment: Octanol/water partition coefficient (log P) by HPLC elution time against a working curve of standard substances
Format: physicochemical
Conditions: Tosoh ODS-120T column, acetonitrile/0.6% (by mass) aqueous HClO4 = 1/1, 40° C., UV 210 nm, standards heptanoic, octanoic, nonanoic and decanoic acid
Method: The octanol/water partition coefficient is the coefficient of partition between 1-octanol and water and is expressed in terms of log P [wherein P represents the ratio between the fluorine-containing surfactant (A) concentration in octanol/fluorine-containing surfactant (A) concentration in water as found upon phase separation of a fluorine-containing surfactant (A)-containing octanol/water mixture (1:1)]. The octanol/water partition coefficient is determined by the measurement method according to OECD Guideline 107. In measuring the octanol/water partition coefficient, such methods as the flask shaking method and reversed-phase high performance liquid chromatography can generally be employed.
(5) Octanol/Water Partition Coefficient
Standard substances (heptanoic acid, octanoic acid, nonanoic acid and decanoic acid) each having a known octanol/water partition coefficient were subjected to HPLC under the following conditions: column: Tosoh ODS-120T column (ø4.6 mm×250 mm), eluent: acetonitrile/0.6% (by mass) aqueous solution of HClO4=1/1 (vol/vol %), flow rate: 1.0 ml/minute, sample size: 300 μL, column temperature: 40° C., detection light: UV 210 nm. A working curve showing the relation between the elution time and the known octanol/water partition coefficient was then constructed. The coefficient in question was determined from the elution time in HPLC for the sample solution based on that working curve.

Compound | logP: octanol/water partition coefficient
N.O=C(O)C(F)(OC(F)(F)C(F)(OC(F)(F)F)C(F)(F)F)C(F)(F)F (centres unmarked) [Fluorine-containing surfactant 3, CF3O(CF(CF3)CF2O)CF(CF3)COONH4] | 3.4
N.O=C(O)C(F)(F)C(F)(F)C(F)(F)C(F)(F)C(F)(F)C(F)F [Fluorine-containing surfactant 1, H(CF2CF2)3COONH4] | 2.4
N.O=C(O)C(F)(F)C(F)(F)C(F)(F)C(F)(F)C(F)(F)C(F)(F)C(F)(F)F [Fluorine-containing surfactant 5, CF3(CF2CF2)3COONH4] | 3.5
CF3CF2(CF2CF2)2COONH4 [Fluorine-containing surfactant 4] | 3.0
N.O=C(O)C(F)(OC(F)(F)C(F)(F)C(F)(F)F)C(F)(F)F (centres unmarked) [Fluorine-containing surfactant 2, C3F7OCF(CF3)COONH4] | 2.5

— patent US7714047B2, “Process for producing aqueous fluoropolymer dispension and aqueous fluoropolymer dispersion” (Daikin Industries, Ltd., priority 2003, dated 2010)
